Measured values from patent publication US20150126467A1, “USE OF ALGINATE OLIGOMERS TO ENHANCE THE EFFECTS OF ANTIFUNGAL AGENTS” (AlgiIPharma AS, priority 2011, published 2015).
Values after ≈ are worked out from the molar mass of the structure shown. Like-named read-outs stand apart in the source and are kept apart here.

Columns and labels:
C. albicans CCUG 39343 = assay: Robotic MIC assay, Candida strains (Example 2); type: cell-based; settings: Candida albicans, CCUG39343, 48 h, Mueller-Hinton broth, read-out: Minimum Inhibitory Concentration (MIC)
Procedure: (§1) A robotic MIC Assay was performed as follows. OligoG CF-5/20 were dissolved in medium (Mueller-Hinton broth or M19 broth depending on experiment) to 1.25 times of the desired assay concentrations (2, 6 and 10%). The antifungal agents under test were dissolved in medium without OligoG CF-5/20 and in medium with OligoG CF-5/20 at a concentration of 1.25 times the highest desired assay concentrations. For experiments where the effect of adding different concentrations of Na^+ was investigated, NaCl was dissolved in medium to the desired concentrations (10, 30 and 50 mM).
(§2) Two-fold serial dilutions of antifungal agents were made in medium with different concentrations of OligoG CF-5/20, and the solutions were placed in four parallel wells in Nunc 384-well micro plates (30 μl per well in Nunc 242757 microplates). A group of 8 wells with no addition of antifungal agents for each OligoG CF-5/20 concentration was included on each microplate as growth reference. To each well in the 384-well assay plates was added 7.5 μl of medium inoculated with a frozen stock culture of Candida albicans (strain CCUG 39343).
(§3) The micro plates were placed in plastic bags and incubated without shaking at 34° C. The optical density at 600 nm in the microwells was measured after approximately 13, 18, 24 and 34 hours of incubation, and the relative growth yield in each well was calculated based on the growth in the reference groups.
(§4) The robotic assay described in Example 1 was employed in this Example. Strains were grown in Mueller-Hinton broth (LAB114 from Lab M Limited) and MIC values (μg ml-1) were determined for each antifungal after incubation for 48 h in the presence of 0, 2, 6 and 10% OligoG CF-5/20 G-fragments. […] OligoG CF-5/20 G-fragments were provided by AlgiPharma AS, Norway.
(§5) Candida strains used were as follows: • C. albicans CCUG 39343 (strain from culture collection) • C. parapsillosis ATCC 22019T (strain from culture collection) • C. krusei 141/03 (candidosis) • C. krusei 249/03(2) (ulceration) • C. lusitaniae 994/01(2) (candidosis) • C. tropicalis 12 (vaginal) • C. tropicalis 75 (vaginal) • C. tropicalis 519468 (urinary) • C. tropicalis 544123 (urinary) • C. tropicalis 250/03 (candidosis) • C. tropicalis AG1 (oral) • C. tropicalis T2.2 (oral)

[1] = test system: C. krusei 141/03 (candidosis); assay: Robotic MIC assay, Candida strains (Example 2); type: cell-based; settings: Pichia kudriavzevii, 48 h, Mueller-Hinton broth, read-out: Minimum Inhibitory Concentration (MIC)
Procedure: as §1, §2, §3, §4, §5

[2] = test system: C. krusei 249/03(2) (ulceration); assay: Robotic MIC assay, Candida strains (Example 2); type: cell-based; settings: Pichia kudriavzevii, 48 h, Mueller-Hinton broth, read-out: Minimum Inhibitory Concentration (MIC)
Procedure: as §1, §2, §3, §4, §5

[3] = test system: C. lusitaniae 994/01(2) (candidosis); assay: Robotic MIC assay, Candida strains (Example 2); type: cell-based; settings: Clavispora lusitaniae, 48 h, Mueller-Hinton broth, read-out: Minimum Inhibitory Concentration (MIC)
Procedure: as §1, §2, §3, §4, §5

[4] = test system: C. tropicalis 12 (vaginal); assay: Robotic MIC assay, Candida strains (Example 2); type: cell-based; settings: Candida tropicalis, 48 h, Mueller-Hinton broth, read-out: Minimum Inhibitory Concentration (MIC)
Procedure: as §1, §2, §3, §4, §5

[5] = test system: C. tropicalis 250/03 (candidosis); assay: Robotic MIC assay, Candida strains (Example 2); type: cell-based; settings: Candida tropicalis, 48 h, C. tropicalis 250/03 Candiosis, Mueller-Hinton broth, read-out: Minimum Inhibitory Concentration (MIC)
Procedure: as §1, §2, §3, §4, §5

[6] = test system: C. tropicalis 519468 (urinary); assay: Robotic MIC assay, Candida strains (Example 2); type: cell-based; settings: Candida tropicalis, 48 h, Mueller-Hinton broth, read-out: Minimum Inhibitory Concentration (MIC)
Procedure: as §1, §2, §3, §4, §5

[7] = test system: C. tropicalis 544123 (urinary); assay: Robotic MIC assay, Candida strains (Example 2); type: cell-based; settings: Candida tropicalis, 48 h, Mueller-Hinton broth, read-out: Minimum Inhibitory Concentration (MIC)
Procedure: as §1, §2, §3, §4, §5

[8] = test system: C. tropicalis 75 (vaginal); assay: Robotic MIC assay, Candida strains (Example 2); type: cell-based; settings: Candida tropicalis, 48 h, Mueller-Hinton broth, read-out: Minimum Inhibitory Concentration (MIC)
Procedure: as §1, §2, §3, §4, §5

C. tropicalis AG1 (oral) = assay: Robotic MIC assay, Candida strains (Example 2); type: cell-based; settings: Candida tropicalis, 48 h, Mueller-Hinton broth, read-out: Minimum Inhibitory Concentration (MIC)
Procedure: as §1, §2, §3, §4, §5

[9] = test system: C. tropicalis T2.2 (oral); assay: Robotic MIC assay, Candida strains (Example 2); type: cell-based; settings: Candida tropicalis, 48 h, Mueller-Hinton broth, read-out: Minimum Inhibitory Concentration (MIC)
Procedure: as §1, §2, §3, §4, §5

[10] = test system: C. parapsillosis ATCC 22019T; assay: Robotic MIC assay, Candida strains (Example 2); type: cell-based, Candida parapsilosis; settings: Lodderomyces parapsilosis, ATCC22019, 48 h, Mueller-Hinton broth, read-out: Minimum Inhibitory Concentration (MIC)
Procedure: as §1, §2, §3, §4, §5

[11] = test system: various Aspergillus species; assay: Robotic MIC assay, summary over species (Example 4); type: cell-based; settings: Aspergillus species tested
Procedure: Aspergillus sp. was grown at 30° C. for 96 h on YM-agar. Spores and aerial mycelium was cut out from the agar, suspended in 1 ml YM-broth and dispersed with glass beads (1 mm) in a mini bead beater for 2 min. Glycerol was added to the suspension to 10% and frozen at −80° C.
Each batch of frozen stock culture was then characterized in separate growth experiments using Mueller-Hinton broth to determine the minimum amount of inoculum giving satisfactory growth after 48 h under the conditions relevant for the MIC assay. This inoculation procedure is used in order to reduce day to day variation in bioassays.
Robotic minimum inhibitory concentration (MIC) assay was performed as follows. OligoG CF-5/20 was dissolved in medium (Mueller-Hinton broth) to 1.25 times of the desired assay concentrations (2, 6 and 10%). […].
Two-fold serial dilutions of antifungal agents were made in medium with different concentrations of OligoG CF-5/20, and the solutions were placed in four parallel wells in Nunc 384-well micro plates (30 μl per well in Nunc 242757 microplates). A group of 8 wells with no addition of antifungal agents for each OligoG CF-5/20 concentration was included on each micro plate as growth reference. Each well in the 384-well assay plates was added 7.5 μl of the MH medium inoculated with frozen stock culture of the relevant strains.
The microplates were placed in plastic bags and incubated without shaking at 34° C. The optical density at 600 nm in the microwells was measured after approximately 24 and 48 hours of incubation. […]

## CN(C/C=C/C#CC(C)(C)C)Cc1cccc2ccccc12 [Terbinafine, terbinafine]
C. albicans CCUG 39343; 0% OligoG
  MIC: > 32 µg/mL
C. albicans CCUG 39343; 2% OligoG
  MIC: > 32 µg/mL
C. albicans CCUG 39343; 6% OligoG
  MIC: > 32 µg/mL
C. albicans CCUG 39343; 10% OligoG
  MIC: > 32 µg/mL
[1]; 0% OligoG
  MIC: > 32 µg/mL
[1]; 2% OligoG
  MIC: > 32 µg/mL
[1]; 6% OligoG
  MIC: > 32 µg/mL
[1]; 10% OligoG
  MIC: > 32 µg/mL
[2]; 0% OligoG
  MIC: 4 µg/mL (≈ 13.7 µM)
[2]; 2% OligoG
  MIC: 4 µg/mL (≈ 13.7 µM)
[2]; 6% OligoG
  MIC: 8 µg/mL (≈ 27.5 µM)
[2]; 10% OligoG
  MIC: 4 µg/mL (≈ 13.7 µM)
[3]; 0% OligoG
  MIC: 8 µg/mL (≈ 27.5 µM)
[3]; 2% OligoG
  MIC: 4 µg/mL (≈ 13.7 µM)
[3]; 6% OligoG
  MIC: 4 µg/mL (≈ 13.7 µM)
[3]; 10% OligoG
  MIC: 2 µg/mL (≈ 6.86 µM)
[4]; 0% OligoG
  MIC: > 32 µg/mL
[4]; 2% OligoG
  MIC: 16 µg/mL (≈ 54.9 µM)
[4]; 6% OligoG
  MIC: > 32 µg/mL
[4]; 10% OligoG
  MIC: 32 µg/mL (≈ 110 µM)
[5]; 0% OligoG
  MIC: > 32 µg/mL
[5]; 2% OligoG
  MIC: > 32 µg/mL
[5]; 6% OligoG
  MIC: > 32 µg/mL
[5]; 10% OligoG
  MIC: > 32 µg/mL
[6]; 0% OligoG
  MIC: > 32 µg/mL
[6]; 2% OligoG
  MIC: > 32 µg/mL
[6]; 6% OligoG
  MIC: > 32 µg/mL
[6]; 10% OligoG
  MIC: > 32 µg/mL
[7]; 0% OligoG
  MIC: > 32 µg/mL
[7]; 2% OligoG
  MIC: > 32 µg/mL
[7]; 6% OligoG
  MIC: > 32 µg/mL
[7]; 10% OligoG
  MIC: > 32 µg/mL
[8]; 0% OligoG
  MIC: > 32 µg/mL
[8]; 2% OligoG
  MIC: > 32 µg/mL
[8]; 6% OligoG
  MIC: > 32 µg/mL
[8]; 10% OligoG
  MIC: > 32 µg/mL
C. tropicalis AG1 (oral); 0% OligoG
  MIC: > 32 µg/mL
C. tropicalis AG1 (oral); 2% OligoG
  MIC: 32 µg/mL (≈ 110 µM)
C. tropicalis AG1 (oral); 6% OligoG
  MIC: > 32 µg/mL
C. tropicalis AG1 (oral); 10% OligoG
  MIC: > 32 µg/mL
[9]; 0% OligoG
  MIC: > 32 µg/mL
[9]; 2% OligoG
  MIC: > 32 µg/mL
[9]; 6% OligoG
  MIC: > 32 µg/mL
[9]; 10% OligoG
  MIC: 32 µg/mL (≈ 110 µM)
[10]; 0% OligoG
  MIC: 2 µg/mL (≈ 6.86 µM)
[10]; 2% OligoG
  MIC: 1 µg/mL (≈ 3.43 µM)
[10]; 6% OligoG
  MIC: 2 µg/mL (≈ 6.86 µM)
[10]; 10% OligoG
  MIC: 1 µg/mL (≈ 3.43 µM)
[11]
  effect of addition of OligoG CF-5/20 on MIC values: reduction in MIC values
